Measured values from patent publication US20260124214A1, “HETEROCYCLIC COMPOUNDS FOR USE IN THE TREATMENT OF CANCER” (ARTIOS PHARMA LIMITED, priority 2021, published 2026).
Where a name gives a salt, the structure may show the parent alone.

Biological target: T1, Human Polθ polymerase domain (aa1820-2590) (Homo sapiens, UniProt O75417)
T1 construct: Human Polθ polymerase domain (aa1820-2590) was expressed in E. Coli; made in house; host or cells: E. coli
T1 sequence (O75417 1820-2590): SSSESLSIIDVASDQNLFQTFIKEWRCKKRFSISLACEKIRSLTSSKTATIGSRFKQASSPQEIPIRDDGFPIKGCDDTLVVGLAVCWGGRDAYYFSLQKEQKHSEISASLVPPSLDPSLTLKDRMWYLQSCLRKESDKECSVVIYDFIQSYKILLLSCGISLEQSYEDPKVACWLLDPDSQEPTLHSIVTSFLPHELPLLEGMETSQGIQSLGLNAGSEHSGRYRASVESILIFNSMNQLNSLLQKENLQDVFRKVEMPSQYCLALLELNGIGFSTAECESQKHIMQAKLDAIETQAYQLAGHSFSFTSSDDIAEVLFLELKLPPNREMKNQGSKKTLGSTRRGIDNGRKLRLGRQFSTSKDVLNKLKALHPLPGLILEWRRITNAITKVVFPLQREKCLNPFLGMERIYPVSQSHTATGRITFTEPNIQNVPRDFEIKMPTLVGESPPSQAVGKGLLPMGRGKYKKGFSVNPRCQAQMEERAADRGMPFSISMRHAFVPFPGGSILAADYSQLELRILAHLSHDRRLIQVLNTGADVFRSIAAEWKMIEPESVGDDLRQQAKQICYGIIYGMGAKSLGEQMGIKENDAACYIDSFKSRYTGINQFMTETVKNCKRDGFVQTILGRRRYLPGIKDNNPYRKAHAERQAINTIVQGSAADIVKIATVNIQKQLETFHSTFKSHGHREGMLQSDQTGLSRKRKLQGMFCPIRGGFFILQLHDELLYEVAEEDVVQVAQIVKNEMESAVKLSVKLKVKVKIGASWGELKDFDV
Assay: Polθ Polymerase Domain WT KI Assay (PicoGreen)
Format: biochemical
Conditions: 100 nM DNA substrate, 0.156 nM Polθ, initial rates vs inhibitor concentration
In short: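 E. coli-expressed human Polθ polymerase domain (aa1820-2590) on annealed DNA II Short/Long primer-template (1.2:1), in 25 mM Tris pH 7.5, NaCl, 5% glycerol, 0.01% Triton X-100, 0.1 mg/ml BSA, 1 mM DTT, 1% DMSO. EDTA-quenched timepoints to 180 min, PicoGreen fluorescence. Initial rates vs inhibitor concentration fitted four-parameter for KI.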

SMILES	Ki
Cc1cc(C(F)(F)F)cc(N2C(=O)C[C@@H]3CN(CC4COCCN4)c4c(C)cccc4N(C)C(=O)[C@H]32)n1 (single isomer, unassigned) [Example 112a]	4.14 nM
Cc1cc(C(F)(F)F)cc(N2C(=O)C[C@@H]3CN(C[C@H]4COCCN4C)c4c(Cl)cccc4N(C)C(=O)[C@H]32)n1 (racemic) [Example 119a, (3aR,11aS)-6-Chloro-10-methyl-1-(6-methyl-4-(trifluoromethyl)pyridin-2-yl)-5-(((S/R)-4-methylmorpholin-3-yl)methyl)-1,3a,4,5,10,11a-hexahydro-2H-benzo[b]pyrrolo[2,3-f][1,4]diazocine-2,11(3H)-dione]	1.28 nM
Cc1cc(C(F)(F)F)cc(N2C(=O)C[C@@H]3CN(CCN4CCNCC4)c4c(Cl)cccc4N(C)C(=O)[C@H]32)n1 [Example 19, (3aR,11aS)-6-Chloro-10-methyl-1-(6-methyl-4-(trifluoromethyl)pyridin-2-yl)-5-(2-(piperazin-1-yl)ethyl)-1,3a,4,5,10,11a-hexahydro-2H-benzo[b]pyrrolo[2,3-f][1,4]diazocine-2,11(3H)-dione]	1.87 nM
Cc1cc(C(F)(F)F)cc(N2C(=O)C[C@@H]3CN(C[C@@H](O)CN(C)C)c4c(Cl)cccc4N(C)C(=O)[C@H]32)n1 (racemic) [Example 132a, (3aR,11aS)-6-chloro-5-((S/R)-3-(dimethylamino)-2-hydroxypropyl)-10-methyl-1-(6-methyl-4-(trifluoromethyl)pyridin-2-yl)-1,3a,4,5,10,11a-hexahydro-2H-benzo[b]pyrrolo[2,3-f][1,4]diazocine-2,11(3H)-dione]	6.27 nM
Cc1cc(C(F)(F)F)cc(N2C(=O)C[C@@H]3CN(CCN4CC[C@H](C#N)C4)c4c(Cl)cccc4N(C)C(=O)[C@H]32)n1 [Example 39, (S)-1-(2-((3aR,11aS)-6-Chloro-10-methyl-1-(6-methyl-4-(trifluoromethyl)pyridin-2-yl)-2,11-dioxo-1,2,3,3a,4,10,11,11a-octahydro-5H-benzo[b]pyrrolo[2,3-f][1,4]diazocin-5-yl)ethyl)pyrrolidine-3-carbonitrile]	4.13 nM
Cc1cc(C(F)(F)F)cc(N2C(=O)C[C@@H]3CN(C4CC(OCc5ccccc5)C4)c4c(F)cccc4N(C)C(=O)[C@H]32)n1 (single isomer, unassigned) [Example 92b]	14.7 nM
Cc1cc(C(F)(F)F)cc(N2C(=O)C[C@@H]3CN(CC(O)CN(C)C)c4c(Cl)cccc4N(C)C(=O)[C@H]32)n1 (single isomer, unassigned) [Example 132b]	6.14 nM
Cc1cc(C(F)(F)F)cc(N2C(=O)C[C@@H]3CN(Cc4cn5c(n4)C(C)N(C)CC5)c4c(C)cccc4N(C)C(=O)[C@H]32)n1 (single isomer, unassigned) [Example 116a]	0.63 nM
Cc1cc(C(F)(F)F)cc(N2C(=O)C[C@@H]3CN(Cc4cccc(C5CN(C)C5)c4)c4c(F)cccc4N(C)C(=O)[C@H]32)n1 [Example 124, (3aR,11aS)-6-Fluoro-10-methyl-1-(6-methyl-4-(trifluoromethyl)pyridin-2-yl)-5-(3-(1-methylazetidin-3-yl)benzyl)-1,3a,4,5,10,11a-hexahydro-2H-benzo[b]pyrrolo[2,3-f][1,4]diazocine-2,11(3H)-dione]	4.26 nM
Cc1cc(C(F)(F)F)cc(N2C(=O)C[C@@H]3CN(CCN4CCN5C(=O)COC[C@H]5C4)c4c(C)cccc4N(C)C(=O)[C@H]32)n1 [Example 75, (3aR,11aS)-6,10-Dimethyl-1-(6-methyl-4-(trifluoromethyl)pyridin-2-yl)-5-(2-((R)-4-oxohexahydropyrazino[2,1-c][1,4]oxazin-8(1H)-yl)ethyl)-1,3a,4,5,10,11a-hexahydro-2H-benzo[b]pyrrolo[2,3-f][1,4]diazocine-2,11(3H)-dione]	1.81 nM
Cc1cc(C(F)(F)F)cc(N2C(=O)C[C@@H]3CN(Cc4ccc(C5CCCN5C)cc4)c4c(F)cccc4N(C)C(=O)[C@H]32)n1 (single isomer, unassigned) [Example 125a, hydrochloride]	7.92 nM
Cc1cc(C(F)(F)F)cc(N2C(=O)C[C@@H]3CN(Cc4ccc5c(c4)CN(C)C5)c4c(F)cccc4N(C)C(=O)[C@H]32)n1 [Example 123, (3aR,11aS)-6-Fluoro-10-methyl-1-(6-methyl-4-(trifluoromethyl)pyridin-2-yl)-5-((2-methylisoindolin-5-yl)methyl)-1,3a,4,5,10,11a-hexahydro-2H-benzo[b]pyrrolo[2,3-f][1,4]diazocine-2,11(3H)-dione hydrochloride]	2.2 nM
COCCN1CCC(CN2C[C@H]3CC(=O)N(c4cc(C(F)(F)F)cc(C)n4)[C@@H]3C(=O)N(C)c3cccc(Cl)c32)CC1 [Example 87, (3aR,11aS)-6-Chloro-5-((1-(2-methoxyethyl)piperidin-4-yl)methyl)-10-methyl-1-(6-methyl-4-(trifluoromethyl)pyridin-2-yl)-1,3a,4,5,10,11a-hexahydro-2H-benzo[b]pyrrolo[2,3-f][1,4]diazocine-2,11(3H)-dione]	1.48 nM
Cc1cc(C(F)(F)F)cc(N2C(=O)C[C@@H]3CN(CC4CN(C)CCO4)c4c(Cl)cccc4N(C)C(=O)[C@H]32)n1 (single isomer, unassigned) [Example 120a, hydrochloride]	1.39 nM
Cc1cc(C(F)(F)F)cc(N2C(=O)C[C@@H]3CN(Cc4nc5n(c4F)CCN(C)C5)c4c(Cl)cccc4N(C)C(=O)[C@H]32)n1 [Example 81, (3aR,11aS)-6-Chloro-5-((3-fluoro-7-methyl-5,6,7,8-tetrahydroimidazo[1,2-a]pyrazin-2-yl)methyl)-10-methyl-1-(6-methyl-4-(trifluoromethyl)pyridin-2-yl)-1,3a,4,5,10,11a-hexahydro-2H-benzo[b]pyrrolo[2,3-f][1,4]diazocine-2,11(3H)-dione hydrochloride]	1 nM
Cc1cc(C(F)(F)F)cc(N2C(=O)C[C@@H]3CN(CCN4CC[C@@H](O)C4)c4c(C)cccc4N(C)C(=O)[C@H]32)n1 [Example 56, (3aR,11aS)-5-(2-((R)-3-Hydroxypyrrolidin-1-yl)ethyl)-6,10-dimethyl-1-(6-methyl-4-(trifluoromethyl)pyridin-2-yl)-1,3a,4,5,10,11a-hexahydro-2H-benzo[b]pyrrolo[2,3-f][1,4]diazocine-2,11(3H)-dione]	3.12 nM
Cc1cc(C(F)(F)F)cc(N2C(=O)C[C@@H]3CN(CCN4C[C@@H]5C[C@H]4CN5)c4c(C)cccc4N(C)C(=O)[C@H]32)n1 [Example 59, (3aR,11aS)-5-(2-((1S,4S)-2,5-Diazabicyclo[2.2.1]heptan-2-yl)ethyl)-6,10-dimethyl-1-(6-methyl-4-(trifluoromethyl)pyridin-2-yl)-1,3a,4,5,10,11a-hexahydro-2H-benzo[b]pyrrolo[2,3-f][1,4]diazocine-2,11(3H)-dione dihydrochloride]	1.13 nM
C=CCN1C[C@H]2CC(=O)N(c3cc(C(F)(F)F)cc(C)n3)[C@@H]2C(=O)N(C)c2cccc(F)c21 [Example 4, (3aR,11aS)-5-Allyl-6-fluoro-10-methyl-1-(6-methyl-4-(trifluoromethyl)pyridin-2-yl)-1,3a,4,5,10,11a-hexahydro-2H-benzo[b]pyrrolo[2,3-f][1,4]diazocine-2,11(3H)-dione]	8.33 nM
Cc1cc(C(F)(F)F)cc(N2C(=O)C[C@@H]3CN(CCN4CCN(C)[C@@H](C)C4)c4c(C)cccc4N(C)C(=O)[C@H]32)n1 [Example 46, (3aR,11aS)-5-(2-((S)-3,4-Dimethylpiperazin-1-yl)ethyl)-6,10-dimethyl-1-(6-methyl-4-(trifluoromethyl)pyridin-2-yl)-1,3a,4,5,10,11a-hexahydro-2H-benzo[b]pyrrolo[2,3-f][1,4]diazocine-2,11(3H)-dione dihydrochloride]	0.515 nM
Cc1cc(C(F)(F)F)cc(N2C(=O)C[C@@H]3CN(CCN4CCN(C)[C@H](CO)C4)c4c(C)cccc4N(C)C(=O)[C@H]32)n1 [Example 15, (3aR,11aS)-5-(2-((S)-3-(Hydroxymethyl)-4-methylpiperazin-1-yl)ethyl)-6,10-dimethyl-1-(6-methyl-4-(trifluoromethyl)pyridin-2-yl)-1,3a,4,5,10,11a-hexahydro-2H-benzo[b]pyrrolo[2,3-f][1,4]diazocine-2,11(3H)-dione]	1.22 nM
Cc1cc(C(F)(F)F)cc(N2C(=O)C[C@@H]3CN(Cc4ccc5c(c4)CCN(C)C5)c4c(F)cccc4N(C)C(=O)[C@H]32)n1 [Example 122, (3aR,11aS)-6-Fluoro-10-methyl-5-((2-methyl-1,2,3,4-tetrahydroisoquinolin-6-yl)methyl)-1-(6-methyl-4-(trifluoromethyl)pyridin-2-yl)-1,3a,4,5,10,11a-hexahydro-2H-benzo[b]pyrrolo[2,3-f][1,4]diazocine-2,11(3H)-dione]	1.94 nM
